Assays:
MDA-MB-453 = assay: Inhibition of cell proliferation by payloads in vitro (CCK-8); format: cell-based; conditions: Homo sapiens, MDA-MB-453, 144 h, read-out: IC50, nM MDA-MB-453; payloads, proliferation, 6 days, CCK-8
Method: (§1) The cells were added to a 96-well plate at 1.0×10^3 cells/well and 100 μL/well and incubated in a cell culture incubator at 37° C. and 5% CO2. The test compounds were diluted with a DMEM medium containing 2% DMSO (Sigma-Aldrich, Cat. No. 34869) in a 4-fold gradient to the corresponding concentrations. […] The final concentration of DMSO was 0.2%. The cells were incubated in a cell culture incubator at 37° C. and 5% CO2 for 6 days.
(§2) After 6 days of culture, 10 μL/well of Cell Counting Kit-8 reagent (CCK-8, Dojindo, Cat. No. CK04) was added to the wells and mixed well with shaking. The cells were incubated in a cell culture incubator at 37° C. and 5% CO2 for 0.50-4.0 hours.
(§3) The OD450 optical density value was read on an EnVision™ multi-function microplate reader (PerkinElmer), and the inhibition rates (%) of the compounds were calculated. Then, the half-maximal inhibitory concentration (IC50) values were obtained using the XLfit5 software (ID Business Solutions Limited). All samples were tested in duplicate wells.
(§4) [formula] • wherein • OD450test compound represents the optical density value in the wells of the compounds to be tested; • OD450cell represents the optical density value in the wells of cell controls; • OD450background represents the optical density value in the wells of cell-free controls.

MDA-MB-468 = assay: as above; format: cell-based; conditions: Homo sapiens, MDA-MB-468, 144 h; payloads, proliferation, 6 days, CCK-8; read-out: IC50, nM MDA-MB-468
Method: as §1, §2, §3, §4

[1] = molecular target: T1, Human FRAP1 (mTOR) recombinant protein (Homo sapiens, UniProt P42345); assay: FRAP1 (mTOR) kinase activity, LanthaScreen TR-FRET; format: biochemical; conditions: 10 μM ATP, 0.4 μM GFP-4EBP1; read-out: FRAP1 (mTOR) (Enzyme, IC50)
T1 construct: GST; purchased Invitrogen PV4753
T1 sequence (P42345 1360-2549 limits assumed): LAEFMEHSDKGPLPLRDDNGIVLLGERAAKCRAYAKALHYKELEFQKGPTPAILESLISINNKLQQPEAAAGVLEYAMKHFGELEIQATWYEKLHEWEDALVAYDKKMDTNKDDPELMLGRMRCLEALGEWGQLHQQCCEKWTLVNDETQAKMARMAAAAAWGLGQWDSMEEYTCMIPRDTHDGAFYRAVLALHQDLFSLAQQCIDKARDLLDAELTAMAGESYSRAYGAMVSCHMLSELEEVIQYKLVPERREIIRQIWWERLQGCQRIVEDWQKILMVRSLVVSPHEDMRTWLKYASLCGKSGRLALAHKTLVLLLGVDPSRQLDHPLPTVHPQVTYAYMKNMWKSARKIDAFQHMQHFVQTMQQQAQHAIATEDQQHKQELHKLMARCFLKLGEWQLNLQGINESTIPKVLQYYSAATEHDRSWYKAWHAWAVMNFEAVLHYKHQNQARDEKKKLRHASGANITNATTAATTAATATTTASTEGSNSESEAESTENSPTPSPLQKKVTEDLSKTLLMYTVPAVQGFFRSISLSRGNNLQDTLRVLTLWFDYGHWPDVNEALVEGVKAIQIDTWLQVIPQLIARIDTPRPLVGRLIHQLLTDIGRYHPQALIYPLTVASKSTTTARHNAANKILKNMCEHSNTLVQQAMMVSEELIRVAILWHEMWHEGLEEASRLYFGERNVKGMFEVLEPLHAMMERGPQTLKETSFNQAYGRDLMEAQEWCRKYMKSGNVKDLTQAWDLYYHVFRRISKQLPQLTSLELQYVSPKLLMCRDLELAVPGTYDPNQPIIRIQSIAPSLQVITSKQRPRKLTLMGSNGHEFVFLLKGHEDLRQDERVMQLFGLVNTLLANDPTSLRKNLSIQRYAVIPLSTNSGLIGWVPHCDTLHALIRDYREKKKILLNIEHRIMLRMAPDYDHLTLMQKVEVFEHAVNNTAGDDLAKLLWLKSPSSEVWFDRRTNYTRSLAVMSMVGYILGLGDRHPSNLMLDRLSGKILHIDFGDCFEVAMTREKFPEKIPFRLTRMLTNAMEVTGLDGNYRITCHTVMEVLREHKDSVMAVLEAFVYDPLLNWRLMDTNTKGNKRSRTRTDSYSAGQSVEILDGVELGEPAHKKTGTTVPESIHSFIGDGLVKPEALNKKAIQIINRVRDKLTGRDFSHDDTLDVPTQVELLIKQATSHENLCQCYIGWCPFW
Method: Determination of FRAP1 (mTOR) Kinase Activity • Human FRAP1 (mTOR) recombinant protein (GST tag): Invitrogen, Cat. No. PV4753; • GFP-4E-BP1: Thermo Scientific, Cat. No. PV4759; • LanthaScreenTM Tb-p4E-BP1 ([…]) antibody: Thermo Scientific, Cat. No. PV4755; • TR-FRET dilution buffer: Thermo Scientific, Cat. No. PV3574; • ATP solution (10 mM): Thermo Scientific, Cat. No. PV3227; • HEPES (1 M): Gibco, Cat. No. 15630-106; • EDTA (0.5 M), pH 8.0, RNase-free: Invitrogen, Cat. No. A[…]; • Manganese chloride solution: Sigma-Aldrich, Cat. No. M1787; • EGTA: Sigma-Aldrich, Cat. No. E4378; • TWEEN®20: Sigma-Aldrich, Cat. No. P2287; • DTT: Sigma-Aldrich, Cat. No. DTT-RO; • 384-well plate: Corning, Cat. No. 3676; • 384-well plate: Corning, Cat. No. 4514; • Envision multi-mode plate reader: PerkinElmer; 4EBP1 is the substrate of mTOR, and when mTOR is activated, it will phosphorylate […] of the 4EBP1 protein. LanthaScreenTM kinase assay is used to detect the amount of phosphorylated substrate GFP-4E-BP1 produced in kinase activity experiments, thereby judging the mTOR kinase activity, and through the strength of the kinase activity, distinguishing the inhibitory effects of different compounds on the activity of FRAP1 (mTOR) kinase. […] Then, the 384-well plate was placed in a constant temperature incubator protected from light and incubated at room temperature for 1 hour. […] The 384-well plate was taken out and the plate was read using an Envision multi-mode plate reader (the excitation light wavelength was 320 nm and the emission light wavelengths were 495 nm and 520 nm). The inhibition rate was calculated using the formula as below: [formula]

[2] = molecular target: T2, Human PIK3CA/PIK3R1 (p110α/p85α) recombinant protein (Homo sapiens, UniProt P42336); assay: PIK3CA/PIK3R1 (p110α/p85α) kinase activity, Transcreener ADP2 FP; format: biochemical; conditions: 10 μM ATP, 30 μM PIP2:PS; read-out: PIK3CA/PIK3R1 (p110α/p85α) (Enzyme, IC50)
T2 construct: His tag; purchased Invitrogen PV4788
T2 sequence (P42336 whole entry): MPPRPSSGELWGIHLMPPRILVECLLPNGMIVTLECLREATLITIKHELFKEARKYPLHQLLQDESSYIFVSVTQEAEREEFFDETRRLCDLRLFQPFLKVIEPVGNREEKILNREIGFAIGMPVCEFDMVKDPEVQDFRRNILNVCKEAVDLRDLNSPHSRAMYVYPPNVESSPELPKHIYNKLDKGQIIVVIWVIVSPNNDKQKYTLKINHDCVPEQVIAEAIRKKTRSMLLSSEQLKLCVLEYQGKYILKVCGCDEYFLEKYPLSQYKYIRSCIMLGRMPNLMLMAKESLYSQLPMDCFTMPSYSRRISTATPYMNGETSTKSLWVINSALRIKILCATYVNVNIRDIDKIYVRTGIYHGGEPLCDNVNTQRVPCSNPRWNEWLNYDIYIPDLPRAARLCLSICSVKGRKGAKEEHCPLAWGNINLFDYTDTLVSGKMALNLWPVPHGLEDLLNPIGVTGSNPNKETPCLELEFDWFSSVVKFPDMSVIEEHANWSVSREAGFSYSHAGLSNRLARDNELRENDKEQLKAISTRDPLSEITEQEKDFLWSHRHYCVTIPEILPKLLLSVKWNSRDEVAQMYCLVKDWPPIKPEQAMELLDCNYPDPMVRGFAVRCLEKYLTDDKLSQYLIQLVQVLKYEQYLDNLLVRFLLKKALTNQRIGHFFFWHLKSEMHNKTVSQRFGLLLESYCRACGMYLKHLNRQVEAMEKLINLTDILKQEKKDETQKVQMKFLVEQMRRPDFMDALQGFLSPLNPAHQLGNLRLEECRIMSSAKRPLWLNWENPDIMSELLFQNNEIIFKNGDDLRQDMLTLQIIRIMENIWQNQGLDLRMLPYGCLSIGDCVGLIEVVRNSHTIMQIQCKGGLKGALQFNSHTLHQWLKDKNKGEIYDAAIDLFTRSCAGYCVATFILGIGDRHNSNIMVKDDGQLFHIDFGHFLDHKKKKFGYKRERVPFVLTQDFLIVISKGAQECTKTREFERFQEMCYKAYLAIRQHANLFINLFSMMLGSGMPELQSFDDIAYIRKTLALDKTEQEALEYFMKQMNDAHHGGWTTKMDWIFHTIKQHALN
T2 sequence (P27986 whole entry partner): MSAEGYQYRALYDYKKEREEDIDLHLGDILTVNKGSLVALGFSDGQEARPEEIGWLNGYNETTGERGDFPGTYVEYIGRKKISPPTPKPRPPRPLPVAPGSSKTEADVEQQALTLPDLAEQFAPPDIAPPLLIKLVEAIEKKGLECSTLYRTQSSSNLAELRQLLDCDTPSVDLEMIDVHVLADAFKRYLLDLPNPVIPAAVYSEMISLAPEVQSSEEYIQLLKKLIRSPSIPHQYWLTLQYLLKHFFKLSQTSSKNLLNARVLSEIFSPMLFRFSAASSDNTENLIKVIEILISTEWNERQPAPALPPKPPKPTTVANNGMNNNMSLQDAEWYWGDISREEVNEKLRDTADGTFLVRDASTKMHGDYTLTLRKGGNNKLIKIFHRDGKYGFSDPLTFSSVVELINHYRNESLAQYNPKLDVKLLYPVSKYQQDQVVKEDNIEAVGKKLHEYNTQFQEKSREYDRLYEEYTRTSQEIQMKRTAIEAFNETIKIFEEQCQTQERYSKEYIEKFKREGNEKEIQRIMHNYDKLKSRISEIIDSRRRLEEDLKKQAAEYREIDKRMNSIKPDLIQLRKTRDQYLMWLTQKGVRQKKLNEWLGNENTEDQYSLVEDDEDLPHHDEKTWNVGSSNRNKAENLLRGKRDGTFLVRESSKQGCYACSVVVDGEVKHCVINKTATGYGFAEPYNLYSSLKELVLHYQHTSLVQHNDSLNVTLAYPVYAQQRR
Method: The complex formed by the binding of the ADP Alexa633 Tracer to the ADP2 antibody therein could produce fluorescence polarization. […] Assay is carried out according to the instruction of the kit. […] After that, 10 μl PIK3CA/PIK3R1 (p110α/p85α) enzyme solution was added to each well; then, 10 μl of a mixed solution of ATP and PIP2:PS lipid kinase substrate was added to each well, and the mixture was centrifuged at 1000 rpm for 60 seconds; Then, the 96-well plate was placed in a constant temperature incubator protected from light and incubated at room temperature for 1 hour. […] After the enzymatic reaction was completed, 25 μl of ADP detection mixture was added to the positive control group, 25 μl of ADP detection mixture without ADP^2 antibody was added to the negative control group, and 25 μl of ADP detection mixture without tracer-label ADP and ADP^2 antibody was added to the blank control group. Then centrifugation was performed at 1000 rpm for 60 seconds. The 96-well plate was placed in a constant temperature incubator protected from light, and incubated at room temperature for 1.5 hours. […] [formula] The inhibition rate was calculated using the formula as below: [formula]

ATM(h) = ATM(h) (Homo sapiens, UniProt Q13315); assay: ATM(h) kinase activity, HTRF (Eurofins Cerep); format: biochemical; conditions: read-out: ATM(h) (enzyme, IC50)
Method: (§5) The […], ATM(h), ATR/ATRIP(h), and DNA-PK (h) were detected by HTRFR.
(§6) The calculation formula was as follows: […]
(§7) For IC50 determination, the data were analyzed using XLFit version 5.3 (ID Business Solutions).

DNA-PK(h) = molecular target: T3, DNA-PK(h) (Homo sapiens, UniProt P78527); assay: DNA-PK(h) kinase activity, HTRF (Eurofins Cerep); format: biochemical; conditions: read-out: DNA-PK(h) (enzyme, IC50)
T3 construct: purchased Eurofins Cerep 14-950
Method: as §5, §6, §7

ATR/ATRIP(h) = molecular target: T4, ATR/ATRIP(h) (Homo sapiens, UniProt Q13535); assay: ATR/ATRIP(h) kinase activity, HTRF (Eurofins Cerep); format: biochemical; conditions: read-out: ATR/ATRIP(h) (enzyme, IC50)
T4 construct: purchased Eurofins Cerep 14-953
Method: as §5, §6, §7

Row | SMILES | IC50 (MDA-MB-453) | IC50 (MDA-MB-468) | further results
1 | COc1ncc(-c2ccc3ncc4nnc(C5CCC5)n4c3c2)cc1NS(=O)(=O)N1CCNCC1 [Compound 4] | 0.89 nM | 0.71 nM | –
2 | COc1ncc(-c2ccc3ncc4c(c3c2)n(C2CCC2)c(=O)n4C)cc1NS(=O)(=O)N1CCNCC1 [Compound 5] | 0.064 nM | 0.09 nM | IC50 [1]: 7.5 nM; IC50 [2]: 1.6 nM
3 | COc1ncc(-c2ccc3ncc4c(c3c2)n(C)c(=O)n4C)cc1NS(=O)(=O)N1CCNCC1 [Compound 6] | 0.25 nM | 0.32 nM | –
4 | COc1ncc(-c2ccc3ncc4c(c3c2)n([C@H]2C[C@H](O)C2)c(=O)n4C)cc1NS(=O)(=O)N1CCNCC1 [Compound 7] | 0.3 nM | 0.22 nM | IC50 [1]: 2.7 nM; IC50 [2]: 0.5 nM
5 | COc1ncc(-c2ccc3ncc4c(c3c2)n([C@H]2C[C@H](CO)C2)c(=O)n4C)cc1NS(=O)(=O)N1CCNCC1 [Compound 8] | 0.32 nM | 0.21 nM | –
6 | COc1ncc(-c2ccc3ncc4nnc(C5CC5)n4c3c2)cc1NS(=O)(=O)N1CCNCC1 [Compound 9] | – | 1 nM | –
7 | COc1ncc(-c2ccc3ncc4c(c3c2)n(C2CC2)c(=O)n4C)cc1NS(=O)(=O)N1CCN(C)CC1 [Compound 10] | 2.3 nM | – | –
8 | COc1ncc(-c2ccc3ncc4c(c3c2)n(C2CC2)c(=O)n4C)cc1NS(=O)(=O)N1CC2CNCC2C1 (stereo not drawn) [Compound 12] | 3.3 nM | 7.9 nM | –
9 | COc1ncc(-c2ccc3ncc4c(c3c2)C(C2CC2)N=N4)cc1NS(=O)(=O)N1CCNCC1 (stereo not drawn) [Compound 13] | 1.3 nM | 1.8 nM | –
10 | COc1ncc(-c2ccc3ncc4c(c3c2)n(C2CC2)c(=O)n4C)cc1NS(=O)(=O)C1CCNCC1 [Compound 14] | 0.39 nM | 0.41 nM | IC50 [1]: 11.2 nM; IC50 [2]: 0.6 nM
11 | COc1ncc(-c2ccc3ncc4c(c3c2)n(C2CC2)c(=O)n4C)cc1NS(=O)(=O)N1CCC2(CC1)CNC2 [Compound 15] | 14.9 nM | 18.4 nM | –
12 | COc1ncc(-c2ccc3ncc4c(c3c2)n(C2COC2)c(=O)n4C)cc1NS(=O)(=O)N1CCNCC1 [Compound 16] | 61.6 nM | 91.4 nM | –
13 | COc1ncc(-c2ccc3ncc4ncn(C5CCC5)c4c3c2)cc1NS(=O)(=O)N1CCNCC1 [Compound 17] | 1.8 nM | 3.4 nM | –
14 | COc1ncc(-c2ccc3ncc4cnc(C5CCC5)n4c3c2)cc1NS(=O)(=O)N1CCNCC1 [Compound 18] | – | 0.091 nM | IC50 [1]: 6.2 nM; IC50 [2]: 2.1 nM
15 | COc1ncc(-c2ccc3ncc4c(c3c2)n(C2CCCC2)c(=O)n4C)cc1NS(=O)(=O)N1CCNCC1 [Compound 19] | 0.12 nM | 0.055 nM | IC50 [1]: 8.6 nM; IC50 [2]: 1.4 nM
16 | COc1ncc(-c2ccc3ncc4cnc(C)n4c3c2)cc1NS(=O)(=O)N1CCNCC1 [Compound 20] | – | 1 nM | –
17 | COc1ncc(-c2ccc3ncc4nccn4c3c2)cc1NS(=O)(=O)N1CCNCC1 [Compound 21] | 6.6 nM | 4.9 nM | –
18 | COc1ncc(-c2ccc3ncc4c(c3c2)n(C2CC2)c(=O)n4C)cc1NS(=O)(=O)N1CCN(CCO)CC1 [Compound 22] | 6.5 nM | 9.2 nM | –
19 | COc1ncc(-c2ccc3ncc4ncc(C5CC5)n4c3c2)cc1NS(=O)(=O)N1CCNCC1 [Compound 23] | 0.55 nM | 1.4 nM | IC50 [1]: 3.4 nM; IC50 [2]: 0.7 nM
20 | COc1ncc(-c2ccc3ncc4cnc(C5CC(F)(F)C5)n4c3c2)cc1NS(=O)(=O)N1CCNCC1 [Compound 24] | 0.24 nM | 0.2 nM | IC50 [2]: 1.8 nM
21 | COc1ncc(-c2ccc3ncc4c(c3c2)n(C2CC(F)(F)C2)c(=O)n4C)cc1NS(=O)(=O)N1CCNCC1 [Compound 25] | 0.34 nM | 0.2 nM | IC50 [1]: 10.8 nM
22 | COc1ncc(-c2ccc3ncc4c(c3c2)n([C@H]2C[C@H](CO)C2)c(=O)n4C)cc1NS(=O)(=O)N1CCN(C)CC1 [Compound 26] | 1.8 nM | 1.9 nM | –
23 | COc1ncc(-c2ccc3ncc4c(C)nc(C5CC5)n4c3c2)cc1NS(=O)(=O)N1CCNCC1 [Compound 31] | 0.24 nM | – | IC50 (ATM(h)): 0.4 nM; IC50 (DNA-PK(h)): 0.2 nM; IC50 (ATR/ATRIP(h)): 15 nM
24 | COc1ncc(-c2ccc3ncc4c(c3c2)n(C2CC2)c(=O)n4CC(F)(F)F)cc1NS(=O)(=O)N1CCNCC1 [Compound 33] | 2.3 nM | 3 nM | –
25 | Cn1c(=O)n(C2CC2)c2c3cc(-c4cnc(OCC(F)(F)F)c(NS(=O)(=O)N5CCNCC5)c4)ccc3ncc21 [Compound 34] | 2.8 nM | 3.4 nM | –
26 | [2H]C([2H])([2H])n1c(=O)n(C2CC2)c2c3cc(-c4cnc(OC)c(NS(=O)(=O)N5CCNCC5)c4)ccc3ncc21 [Compound 35] | 0.22 nM | 0.2 nM | –
27 | COc1ncc(-c2ccc3ncc4nnc(C5CC5)n4c3c2)cc1NS(=O)(=O)N1CCN(C)CC1 [Reference compound 1, reference compound] | 7.9 nM | 6 nM | –

Reference: US20260048138A1, “NOVEL PI3K AND/OR PIKK INHIBITORS, ANTIBODY-DRUG CONJUGATES COMPRISING THE SAME AND USES THEREOF” (HUTCHMED LIMITED, priority 2024, published 2026)
